{"source": "paper PMC8028158", "about": "(ACS Omega, 2021)", "target": "T1, human TRPC3 (Homo sapiens, UniProt Q13507)", "T1 sequence (Q13507 1-921)": "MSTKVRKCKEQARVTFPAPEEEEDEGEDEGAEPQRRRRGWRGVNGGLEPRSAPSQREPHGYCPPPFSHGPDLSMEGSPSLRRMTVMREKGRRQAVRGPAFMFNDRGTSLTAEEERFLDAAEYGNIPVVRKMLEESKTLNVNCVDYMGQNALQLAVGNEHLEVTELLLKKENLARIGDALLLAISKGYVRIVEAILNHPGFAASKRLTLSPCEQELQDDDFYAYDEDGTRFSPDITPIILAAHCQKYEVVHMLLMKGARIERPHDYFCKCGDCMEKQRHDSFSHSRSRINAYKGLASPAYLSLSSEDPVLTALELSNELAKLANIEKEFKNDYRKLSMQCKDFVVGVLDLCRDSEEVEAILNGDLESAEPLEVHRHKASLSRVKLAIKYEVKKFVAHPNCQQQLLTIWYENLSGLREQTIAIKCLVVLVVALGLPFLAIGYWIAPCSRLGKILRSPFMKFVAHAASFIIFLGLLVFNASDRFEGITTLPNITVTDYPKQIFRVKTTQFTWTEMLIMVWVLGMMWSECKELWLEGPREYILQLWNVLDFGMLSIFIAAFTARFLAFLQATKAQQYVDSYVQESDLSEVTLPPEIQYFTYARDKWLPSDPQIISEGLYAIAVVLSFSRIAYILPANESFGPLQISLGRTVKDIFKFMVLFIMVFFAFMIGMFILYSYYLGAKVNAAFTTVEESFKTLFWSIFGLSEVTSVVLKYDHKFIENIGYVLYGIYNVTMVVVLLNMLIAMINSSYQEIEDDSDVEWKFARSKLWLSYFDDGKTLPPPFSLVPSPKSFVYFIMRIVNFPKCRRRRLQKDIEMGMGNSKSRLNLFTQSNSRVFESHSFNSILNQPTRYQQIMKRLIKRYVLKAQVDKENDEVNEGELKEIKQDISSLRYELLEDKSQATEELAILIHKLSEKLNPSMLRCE", "assay": "Fluorescence Ca2+ assay in TRPC3-HEK293 cells", "format": "cell-based"}
{"smiles": "COc1cccc2sc(N(CCN(C)C)C(=O)c3ccc4c(c3)CCCC4)nc12", "note": "[Compound 1s, N-(2-(dimethylamino)ethyl)-N-(4-methoxybenzo[d]thiazol-2-yl)-5,6,7,8-tetrahydronaphthalene-2-carboxamide]", "values": [{"measurement": "IC50", "value": "3.3 ± 0.13", "unit": "µM"}]}
